Measured values as given in PubChem BioAssay (NCI).
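Briefly, cells in 96-well plates were exposed to five compound concentrations for 48 h, and endpoints were estimated by linear interpolation. GI50 marks 50% less growth. TGI: total growth inhibition.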

What was measured:
Experiment in all cases: NCI tumour cell line growth inhibition, 48 h
[1] = tested on: A549 NSCLC
[2] = tested on: HS 578T breast
[3] = tested on: NCI-H522 lung
[4] = tested on: SK-MEL-5 melanoma
[5] = tested on: MCF7 breast
[6] = tested on: TK-10 renal
[7] = tested on: RXF 393 renal
[8] = tested on: 786-0 renal
[9] = tested on: EKVX NSCLC
[10] = tested on: NCI-H23 lung

| SMILES | TGI [1] | TGI [2] | TGI [3] | TGI [4] | TGI [5] | TGI [6] | TGI [7] | TGI [8] | TGI [9] | TGI [10] | GI50 [1] | GI50 [2] | GI50 [3] | GI50 [4] | GI50 [5] | GI50 [6] | GI50 [7] | GI50 [9] | GI50 [10] |
| --- | --- | --- | --- | --- | --- | --- | --- | --- | --- | --- | --- | --- | --- | --- | --- | --- | --- | --- | --- |
| C=CCn1c(=O)c(C(=O)Nc2nc(C34CC5CC(CC(C5)C3)C4)cs2)c(O)c2ccccc21 | 45.1 µM | > 100 µM | > 100 µM | > 100 µM | > 100 µM | > 100 µM | > 100 µM | > 100 µM | > 100 µM | > 100 µM | – | – | – | – | – | – | – | – | – |
| O=C(/C=C/c1ccccc1)Oc1ccc(C(=O)/C=C/c2ccccc2)cc1 | > 89.1 µM | 69.4 µM | 23.6 µM | 37 µM | > 31.6 µM | 20.8 µM | > 60.6 µM | 13.7 µM | 22 µM | 22.4 µM | – | – | – | – | – | – | – | – | – |
| Cc1ccc(C2=CC(=O)OC(C[P+](c3ccccc3)(c3ccccc3)c3ccccc3)(c3ccccc3)O2)cc1 (stereo unspecified) | 34.3 µM | 42.6 µM | 26 µM | 29.8 µM | 56.6 µM | 35.6 µM | 73.2 µM | 35.7 µM | 30 µM | 27.2 µM | – | – | – | – | – | – | – | – | – |
| Cc1nn(-c2ccccc2)c2c1C(c1cc3ccccc3nc1Cl)NC(=O)N2 (stereo unspecified) | > 100 µM | 96.2 µM | 35.4 µM | 31.3 µM | 73.9 µM | > 100 µM | 55.9 µM | 35.2 µM | 88.8 µM | 37.6 µM | – | – | – | – | – | – | – | – | – |
| N#CC(C#N)=C1SC(=Nc2ccccc2)C(=Nc2ccccc2)N1c1ccccc1 | > 100 µM | > 93 µM | 4.08 µM | 28.7 µM | > 58.7 µM | > 100 µM | 45.5 µM | 60.8 µM | > 100 µM | 97.7 µM | – | – | – | – | – | – | – | – | – |
| Cc1nc(C)c(N2CCN([N+](=O)[O-])CC2)c(=O)[nH]1 | > 100 µM | > 100 µM | > 100 µM | > 100 µM | > 100 µM | > 100 µM | > 100 µM | > 100 µM | > 100 µM | > 100 µM | – | – | – | – | – | – | – | – | – |
| NC(=O)c1c(NC(=O)c2ccccc2)sc2c1CCC(=O)C2 | > 100 µM | 6.97 µM | 2.14 µM | 3.04 µM | 9.02 µM | > 100 µM | 5.46 µM | – | 11.5 µM | 5.83 µM | 3.58 µM | 1.2 µM | 0.346 µM | 1.64 µM | 1.82 µM | 6.91 µM | 1.17 µM | 1.82 µM | 0.627 µM |
| O=C(CCn1ccnc1[N+](=O)[O-])NCCCn1ccnc1[N+](=O)[O-] | > 100 µM | > 100 µM | > 100 µM | > 100 µM | > 100 µM | > 100 µM | > 100 µM | > 100 µM | > 100 µM | > 100 µM | – | – | – | – | – | – | – | – | – |
| CCCCCC#CCOC(=O)C(=[N+]=[N-])P(=O)(c1ccccc1)c1ccccc1 | > 10 µM | > 10 µM | – | > 10 µM | > 10 µM | > 10 µM | > 10 µM | > 10 µM | > 10 µM | > 10 µM | – | – | – | – | – | – | – | – | – |
| COc1cc(O)c2c(c1)C(=O)c1cc3c(c(O)c1C2=O)C(OC1OC(C)C(OC)C(O)C1OC)C(OC)C(C)(O)C3=O (stereo unspecified) | 16.1 µM | 33.3 µM | 3.62 µM | 3.86 µM | 17.1 µM | 23.7 µM | – | 45.5 µM | 14.5 µM | 23.2 µM | – | – | – | – | – | – | – | – | – |
| C[C@H](CCC(=O)O)[C@H]1CC[C@H]2[C@@H]3C(=O)C[C@@H]4C[C@H](O)CC[C@]4(C)[C@H]3C[C@H](O)[C@]12C | > 100 µM | 78.9 µM | > 100 µM | – | > 100 µM | > 100 µM | > 100 µM | > 100 µM | > 100 µM | > 100 µM | – | – | – | – | – | – | – | – | – |
| C/C(=N\N=C1/C(=O)OC(c2ccccc2)=C1C(=O)c1ccccc1)c1ccc([N+](=O)[O-])cc1 | > 100 µM | > 100 µM | 83.5 µM | > 100 µM | > 100 µM | > 100 µM | > 100 µM | > 100 µM | > 100 µM | > 100 µM | – | – | – | – | – | – | – | – | – |
| Cc1c2cc[n+](C)c(C)c2cc2c1[nH]c1ccccc12 | 68.7 µM | 7.54 µM | 18.2 µM | 11 µM | 70.1 µM | > 100 µM | > 100 µM | > 39.5 µM | 42.7 µM | 16.3 µM | – | – | – | – | – | – | – | – | – |
| CCOc1cc(/C=C2/C(C)=NN(c3cccc(Cl)c3)/C2=N/c2nc3ccccc3s2)ccc1O | – | 68.6 µM | 52.7 µM | 40.2 µM | 81.8 µM | > 100 µM | > 100 µM | > 100 µM | > 100 µM | 50.7 µM | – | – | – | – | – | – | – | – | – |
| O=P(O)(O)C(N=C(Nc1ccccc1)Nc1ccccc1)P(=O)(O)O | > 100 µM | > 100 µM | > 100 µM | > 100 µM | > 100 µM | > 100 µM | > 100 µM | > 100 µM | > 100 µM | > 100 µM | – | – | – | – | – | – | – | – | – |
| CCOC(=O)c1cccc(N=Nc2nc[nH]c2/C=C/C(=O)OC)c1 | > 100 µM | > 100 µM | > 100 µM | 36.9 µM | > 100 µM | > 100 µM | > 100 µM | > 100 µM | > 100 µM | > 100 µM | – | – | – | – | – | – | – | – | – |
| COC(=O)C(Cc1ccc2c(c1)CCC2)Cc1ccc2c(c1)CCC2 | > 100 µM | > 100 µM | > 100 µM | > 100 µM | > 100 µM | > 100 µM | > 100 µM | > 100 µM | > 100 µM | > 100 µM | – | – | – | – | – | – | – | – | – |
| C[n+]1c(/C=C/c2c(O)ccc3ccccc23)ccc2ccccc21 | 16.1 µM | 21.5 µM | 10.2 µM | 10.7 µM | 7.89 µM | 11.7 µM | 10.7 µM | – | 12.9 µM | 13.7 µM | 7.76 µM | 5.3 µM | 2.52 µM | 4.82 µM | 1.12 µM | 5.49 µM | 4.54 µM | 4.72 µM | 5.1 µM |
| CSC1=N/C(=C\c2ccc(C)cc2)C(=O)N1CN1CCCCC1 | > 100 µM | > 100 µM | > 100 µM | > 100 µM | > 100 µM | > 100 µM | – | > 100 µM | > 100 µM | > 100 µM | – | – | – | – | – | – | – | – | – |
| CC(=NNC(=S)Nc1ccccc1)c1cccc(C(C)=NNC(=S)Nc2ccccc2)n1 | > 46.4 µM | > 100 µM | > 100 µM | > 40.1 µM | > 30.7 µM | > 100 µM | 36.6 µM | 35.4 µM | > 100 µM | > 100 µM | – | – | – | – | – | – | – | – | – |
